Results on two compounds are retold here after ChEMBL document CHEMBL3639072, “Heterocyclic derivatives and their use in the treatment of neurological disorders” (2014).

One may read the IC50 as the concentration at which inhibition is half-maximal. Low values mean greater potency, high ones weaker potency.

The target in one assay is T1, Beta-secretase 2 (Homo sapiens, UniProt Q9Y5Z0).
T1 sequence (Q9Y5Z0 whole entry): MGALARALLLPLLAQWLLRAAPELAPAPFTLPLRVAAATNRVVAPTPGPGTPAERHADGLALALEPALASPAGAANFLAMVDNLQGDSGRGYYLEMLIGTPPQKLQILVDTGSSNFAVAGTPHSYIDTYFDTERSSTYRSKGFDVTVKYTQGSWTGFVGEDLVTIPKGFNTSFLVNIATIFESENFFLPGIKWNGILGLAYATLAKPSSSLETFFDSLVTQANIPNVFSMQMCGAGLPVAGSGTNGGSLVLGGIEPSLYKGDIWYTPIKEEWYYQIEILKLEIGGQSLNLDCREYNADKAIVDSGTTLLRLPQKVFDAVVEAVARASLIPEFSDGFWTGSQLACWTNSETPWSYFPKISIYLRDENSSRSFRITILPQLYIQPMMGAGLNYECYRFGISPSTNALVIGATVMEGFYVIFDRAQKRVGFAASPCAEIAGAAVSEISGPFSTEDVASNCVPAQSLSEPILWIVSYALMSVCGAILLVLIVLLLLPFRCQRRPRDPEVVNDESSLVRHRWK

Another assay addresses Beta-secretase 1 (Homo sapiens, UniProt P56817).

Beta-secretase 1, sequence (P56817 whole entry): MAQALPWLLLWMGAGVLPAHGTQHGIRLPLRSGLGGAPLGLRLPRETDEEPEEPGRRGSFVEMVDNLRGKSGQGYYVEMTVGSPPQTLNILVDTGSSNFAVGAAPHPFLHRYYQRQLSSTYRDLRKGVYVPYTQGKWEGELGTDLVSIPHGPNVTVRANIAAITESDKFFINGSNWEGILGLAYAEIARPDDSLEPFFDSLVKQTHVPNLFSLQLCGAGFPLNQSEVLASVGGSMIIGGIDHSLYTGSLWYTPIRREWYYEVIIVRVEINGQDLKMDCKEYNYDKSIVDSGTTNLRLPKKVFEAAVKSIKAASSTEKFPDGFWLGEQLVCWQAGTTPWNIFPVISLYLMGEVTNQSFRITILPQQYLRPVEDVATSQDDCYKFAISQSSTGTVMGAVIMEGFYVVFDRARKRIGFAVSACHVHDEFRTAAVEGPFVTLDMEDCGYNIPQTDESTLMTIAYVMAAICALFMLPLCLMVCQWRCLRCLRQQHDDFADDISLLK

As for `Cc1cnc(C(=O)Nc2ccc(F)c([C@]3(C)CO[C@@](C)(C(F)(F)F)C(N)=N3)n2)c(C)n1`, the IC50 against Beta-secretase 2 came to 130 nM; against Beta-secretase 1, 230 nM.

`C[C@@]1(c2nc(NC(=O)c3ncc(OCCCF)nc3N)ccc2F)CO[C@@](C)(C(F)(F)F)C(N)=N1`: the IC50 against Beta-secretase 2 was found to be 1000 nM; on Beta-secretase 1 it was 200 nM.
